Results: PMC9145393, “Design, Semisynthesis, and Estrogenic Activity of Lignan Derivatives from Natural Dibenzylbutyrolactones” (Pharmaceuticals, 2022)
“And” between values parts separate entries of the source, which are not always exact repeats. Equal entries are not always repeated. Where two headings read alike, the source gives them in different places.

Tests used:
rhERα-LBD = target: T1, rhERα-LBD (Homo sapiens, UniProt P03372); assay: LanthaScreen TR-FRET competitive binding assay; conditions: 10-point competition curves, Mean ± SE
T1 sequence (P03372 311-547 limits assumed): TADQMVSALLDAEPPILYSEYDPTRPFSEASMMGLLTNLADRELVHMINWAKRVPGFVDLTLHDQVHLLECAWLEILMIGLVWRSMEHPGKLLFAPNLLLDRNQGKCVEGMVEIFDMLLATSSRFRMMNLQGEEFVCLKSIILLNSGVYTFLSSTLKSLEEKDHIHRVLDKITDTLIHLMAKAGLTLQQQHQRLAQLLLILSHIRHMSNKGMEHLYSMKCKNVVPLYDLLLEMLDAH
Experimental: Next, the binding of lignan derivatives to the LBD of rhERα was analyzed by using time-resolved fluorescence resonance energy transfer (TR-FRET) competitive binding assay. […] The LanthaScreen^TM TR-FRET Nuclear Receptor (NR) binding assay (SelectScreen^TM Profiling Service, Life Technologies, Carlsbad, CA, USA) was used for screening of potential binding of lignan derivatives to human ERα [33]. Briefly, the kit uses the recombinant human ERα (rhERα) protein and a tight binding, selective fluorescent ligand, Fluormone^TM tracer. […] The rhERα protein and the tracer form rhERα/tracer complex, resulting in a high FP value. […] Dose-response competition curves were fitted by nonlinear regression analyses in the GraphPad software 8 (GraphPad Software, San Diego, CA, USA) to obtain IC50 values.
Data are expressed as mean ± SEM for from at least three independent experiments, where each concentration is tested in triplicate.

[1] = test system: ER-dependent transcriptional activity in T47D-KBluc cells; assay: ERE-luciferase reporter in T47D-KBluc cells, agonist assessment (absence of E2); type: cell-based, human; parameters: Emax: dose or concentration left out as unconfirmed; conditions: for Emax: Homo sapiens, read-out: E/Emax (%) VEH; for E/Emax (%) VEH: lignans 5 μM, absence of E2 (VEH), relative to Emax induced by 0.1 nM E2, Mean ± SEM
Experimental: (§1) Lactols (5) and (6) were tested as a mixture of the two epimers obtained.
(§2) Chemical screening was carried out by using T47D-KBluc cells, an ER+ BC cell line that is stably transfected with the pGL2.TATA.Inr.Luc.neo containing three ER-responsive elements (ERE). The T47D-KBluc cells were maintained in standard growth media as detailed above. Dosing media was further modified by reduction of DCC-FBS to 5%. […] Chemical screening was also carried out by using the triple negative BC cell line MDA-kb2 cells that stably expresses pMMTV.neo.luc gene, an AR- and GR-responsive reporter gene. […] The T47D-KBluc cells or the MDA-kb2 cells were seeded at 100,000 cells per well in 24-well plates (Nunclon, Sigma-Aldrich, Darmstadt, Germany ) and allowed to attach overnight. Then, the media was replaced with 1 mL/well of dosing media and test compounds incubated 24 h. Then, the cells were harvested in 100 µL passive lysis buffer (Promega, Madison, WI, USA) per well. The relative light units (RLUs), which correspond to luciferase activity from each sample, were measured by using Luciferase Assay Reagent (Promega) in a Clarity luminescence microplate reader (BIOTEK, Winooski, VT, USA). The RLUs from each sample were normalized by protein concentration and converted to fold induction with respect to vehicle-treated control. […] Then, the percent of efficacy (E) of each tested compound, as compared with Emax, was calculated. […] Data are expressed as mean ± SEM of triplicate independent experiments, where each treatment was assayed in triplicate. […] Duplicate plates were dosed in parallel to control the effects of compounds on cell viability. The protein concentration was measured in cell lysate using colorimetric assay reagent (BioRad, CA, USA).

T47D cells = assay: MTT cell viability, E2-depleted T47D cells; type: cell-based, human; conditions: 10 μM, 24 h, absence of E2
Experimental: The effects of lignan derivatives were evaluated on human ER+ BC cells.
Cells were maintained in RPMI (Lonza, Basel, Switzerland) growth media, without phenol red, supplemented with 10% fetal bovine serum (FBS) (Lonza), 2 mM glutamine, 10 mM HEPES, 1 mM sodium pyruvate, 100 UI/mL penicillin and 100 μg/mL streptomycin. Cells were growth in a humidified incubator with 5% CO2 at 37 °C.
The cells were maintained in standard growth media as detailed above and seeded at exponential growth density (6000 cells per well) in 96-well plates (BD Falcon, France). The cells were then treated with vehicle or tests compounds (from 0.01 μM to 10 μM) for 24–72 h. The mitochondrial metabolization of the tetrazolium salt 3-(4,5-methyltiazol-2yl-)-2,5diphenyl-tetrazolium bromide] (MTT) (Applichen, Darmstadt, Germany) was used as an indicator of cell viability.
Figure 6 Effects of lignans on ER+ breast cancer cell viability. […] Then, the mitochondrial metabolization of MTT was used as an indicator of cell viability, as described in the Material and Methods. Data are expressed as mean ± SEM for at least three independent experiments, where each concentration is tested in triplicate. * p < 0.05, ** p < 0.01, and *** p < 0.001 versus VEH-treated cells.

[2] = test system: E2-induced ERE-luciferase activity in T47D-KBluc cells; assay: ERE-luciferase reporter in T47D-KBluc cells, antagonist assessment (presence of 0.1 nM E2); type: cell-based; conditions: Homo sapiens
Experimental: as §1
as §2, with “Then, the media was replaced with 1 mL/well of dosing media and test compounds incubated 24 h.” left out

[3] = read-out: IC50 (inhibition of Fluormone tracer binding to rhERα)
[4] = read-out: IC50 (reduction of E2-induced Emax), lignans 1 μM to 10 μM, 1 h before 0.1 nM E2 for 18 h, predicted by nonlinear regression, Mean ± SE

Row | SMILES | IC50 (rhERα-LBD; [3]) | Emax [1] | E/Emax (%) VEH [1] | reduction of cell viability (T47D cells) | other results
1 | COc1ccc(C[C@@H](CO)[C@H](CO)Cc2ccc3c(c2)OCO3)cc1OC [Compound 7, (2R,3R)-2-(Benzo[d][1,3]dioxol-5-ylmethyl)-3-(3,4-dimethoxybenzyl)butane-1,4-diol] | 4 ± 1.6 µM | 13.1 ± 2.58% | – | – | –
2 | O=C1OC[C@H](Cc2ccc(O)c(O)c2)[C@H]1Cc1ccc(O)c(O)c1 [Compound 3, (3R,4R)-3,4-Bis(3,4-dihydroxybenzyl)dihydrofuran-2(3H)-one] | 0.6 ± 0.11 µM | 24.5 ± 6.53% | weak estrogenic activity | – | –
3 | COc1ccc(C[C@H]2COC[C@@H]2Cc2ccc3c(c2)OCO3)cc1OC [Compound 9] | 8 µM and 7.65 µM | 23.8 ± 6.34% | weak estrogenic activity | 55.6% | –
4 | COc1ccc(C[C@@H](C)[C@H](C)Cc2ccc3c(c2)OCO3)cc1OC [Compound 13, 5-((2R,3R)-4-(3,4-Dimethoxyphenyl)-2,3-dimethylbutyl)benzo[d][1,3]dioxole] | 5.02 ± 1.54 µM | 16.7 ± 3.37% | – | reduced cell viability | –
5 | COc1ccc(C[C@H]2C(=O)OC[C@@H]2Cc2ccc3c(c2)OCO3)cc1OC [Compound 1, (−)-Bursehernin] | – | 17.6 ± 5.4% | – | reduced cell viability | IC50 (rhERα-LBD; IC50 (inhibition of Fluormone tracer binding to rhERα)): 0.39 ± 0.19 µM; IC50 ([2]; lignans 1 μM to 10 μM, 1 h before 0.1 nM E2 for 18 h, predicted by nonlinear regression, Mean ± SE, read-out: IC50 (reduction of E2-induced Emax)): < 20 µM
6 | COc1ccc(C[C@H]2C(O)OC[C@@H]2Cc2ccc3c(c2)OCO3)cc1OC (mixture of isomers) [Compound 5, (3R,4R)-4-(Benzo[d][1,3]dioxol-5-ylmethyl)-3-(3,4-dimethoxybenzyl) Tetrahydro Furan-2-ol] | 3.24 ± 2.03 µM | 22.7 ± 4.26% | weak estrogenic activity | – | –
7 | CC/C(=C(\c1ccc(O)cc1)c1ccc(OCCN(C)C)cc1)c1ccccc1 [Compound 4-OHTAM, 4-hydroxytamoxifen, reference compound] | – | – | – | – | IC50 ([2]; read-out: IC50 (abolition of E2 effect by coincubation), antiestrogen coincubated with E2): 0.38 ± 0.009 µM
8 | O=C1OC[C@@H]2Cc3cc(O)c(O)cc3-c3cc(O)c(O)cc3C[C@@H]12 [Compound 16, (3aR,13aR)-6,7,10,11-Tetrahydroxy-3a,4,13,13a-tetrahydrodibenzo [4,5:6,7] Cycloocta [1,2-c]Furan-1(3H)-One] | – | 11.3 ± 3.47% | – | – | –
9 | COc1ccc(C[C@H]2C(=O)OC[C@@H]2Cc2ccc(O)c(O)c2)cc1OC [Compound 4, (3R,4R)-4-(3,4-Dihydroxybenzyl)-3-(3,4-dimethoxybenzyl)dihydrofuran-2(3H)-one] | 6 µM and 6.04 µM | 15.8 ± 2.15% | – | – | IC50 [2, 4]: > 10 µM
10 | C[C@]12CC[C@@H]3c4ccc(O)cc4CC[C@H]3[C@@H]1CC[C@@H]2O [Compound E2, 17β-estradiol, reference compound] | – | 100 ± 11.3% | – | – | –
11 | COc1ccc(C[C@H]2COC[C@@H]2Cc2ccc(OC)c(OC)c2)cc1OC [Compound 10, (3R,4R)-3,4-Bis(3,4-dimethoxybenzyl)tetrahydrofuran] | – | 3.91 ± 1.55% | – | – | –
12 | COc1ccc(C[C@H]2COC[C@@H]2Cc2ccc(O)c(O)c2)cc1OC [Compound 11] | 0.5 ± 0.17 µM | 12.1 ± 4.33% | weak estrogenic activity | reduced cell viability | IC50 [2, 4]: < 20 µM
13 | COc1ccc(C[C@@H](CO)[C@H](CO)Cc2ccc(OC)c(OC)c2)cc1OC [Compound 8, (2R,3R)-2,3-Bis(3,4-dimethoxybenzyl)butane-1,4-diol] | – | 9.41 ± 1.88% | – | reduced cell viability | –
14 | COc1cc2c(cc1OC)-c1cc(O)c(O)cc1C[C@H]1COC(=O)[C@@H]1C2 [Compound 15, (3aR,13aR)-6,7-Dihydroxy-10,11-dimethoxy-3a,4,13,13a-tetrahydro Dibenzo [4,5:6,7]Cycloocta [1,2-c]Furan-1(3H)-one] | – | 15.6 ± 5.66% | – | – | –
15 | COc1ccc(C[C@@H](COS(C)(=O)=O)[C@H](COS(C)(=O)=O)Cc2ccc3c(c2)OCO3)cc1OC [Compound 12, (2R,3R)-2-(Benzo[d][1,3]dioxol-5-ylmethyl)-3-(3,4-dimethoxybenzyl)butane-1,4-diyl Dimethanesulfonate] | – | 22.2 ± 3.89% | weak estrogenic activity | reduced cell viability | –
16 | COc1ccc(C[C@H]2COC(O)[C@@H]2Cc2ccc(OC)c(OC)c2)cc1OC (mixture of isomers) [Compound 6, (3R,4R)-3,4-Bis(3,4-dimethoxybenzyl)tetrahydrofuran-2-ol] | – | 5.86 ± 0.84% | – | 16.6% | –
